Assay results: US20060128724A1, “Pyrazole-substituted aminoheteroaryl compounds as protein kinase inhibitors” (AGOURON PHARMACEUTICALS, INC., priority 2004, published 2006)

Molecular target: T1, c-MET (HGFR) (Homo sapiens, UniProt P08581)
T1 construct: purchased Upstate 14-526
Assay: HGFR Continuous-Coupled Spectrophotometric Assay
Format: biochemical
Conditions: Met-2 substrate peptide, 50 nM HGFR, 37° C.; read-out: Met Ki
How it was run: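 Tyrosine kinase activity of 50 nM HGFR on the activation-loop Met-2 peptide, followed as NADH consumption at 340 nm over 10 min at 37 °C in a pyruvate kinase/LDH coupled system, HEPES pH 7.5 buffer with MgCl2 and DTT.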

T1 sequence (P08581 974-1390 limits assumed): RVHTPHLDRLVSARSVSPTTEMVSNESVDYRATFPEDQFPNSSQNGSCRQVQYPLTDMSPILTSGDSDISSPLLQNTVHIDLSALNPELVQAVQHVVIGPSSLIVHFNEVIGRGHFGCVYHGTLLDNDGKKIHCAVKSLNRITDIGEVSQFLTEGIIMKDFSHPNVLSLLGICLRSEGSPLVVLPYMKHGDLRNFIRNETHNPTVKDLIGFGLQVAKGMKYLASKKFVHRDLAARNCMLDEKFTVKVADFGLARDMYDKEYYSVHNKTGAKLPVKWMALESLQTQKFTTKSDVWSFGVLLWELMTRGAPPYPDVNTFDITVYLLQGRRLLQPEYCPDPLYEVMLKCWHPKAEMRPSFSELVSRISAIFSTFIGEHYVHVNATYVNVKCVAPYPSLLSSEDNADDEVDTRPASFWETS

Row | Structure (SMILES) | Ki [nM]
1 | CCS(=O)(=O)N1CCC(n2cc(-c3cnc(N)c(OC(C)c4c(Cl)ccc(F)c4Cl)c3)cn2)CC1 (stereo not drawn) [Example 121] | 16
2 | CC(Oc1cc(-c2cnn(C3CCN(C(=O)CN4CCOCC4)CC3)c2)cnc1N)c1c(Cl)ccc(F)c1Cl (stereo not drawn) [Example 123, 1-[4-(4-{6-Amino-5-[1-(2,6-dichloro-3-fluoro-phenyl)-ethoxy]-pyridin-3-yl}-pyrazol-1-yl)-piperidin-1-yl]-2-morpholin-4-yl-ethanone] | 13
3 | CC(Oc1cc(-c2cnn(C3CCN(C(=O)CN4CCCC4)CC3)c2)cnc1N)c1c(Cl)ccc(F)c1Cl (stereo not drawn) [Example 125, 1-[4-(4-{6-Amino-5-[1-(2,6-dichloro-3-fluoro-phenyl)-ethoxy]-pyridin-3-yl}-pyrazoI-1-yl)-piperidin-1-yl]-2-pyrrolidin-1-yl-ethanone] | 14

The remaining lines, values ahead:

Row | Ki [nM] | Structure (SMILES)
4 | 150 | CC(Oc1cc(-c2cnn(C3CCN(C(=O)NCCO)CC3)c2)cnc1N)c1c(Cl)ccc(F)c1Cl (stereo not drawn) [Example 122, 4-(4-[6-Amino-5-[1-(2,6-dichloro-3-fluoro-phenyl)-ethoxy]-pyridin-3-yl}-pyrazol-1-yl)-piperidine-1-carboxylic acid (2-hydroxy-ethyl)-amide]
5 | 14 | COCC(=O)N1CCC(n2cc(-c3cnc(N)c(OC(C)c4c(Cl)ccc(F)c4Cl)c3)cn2)CC1 (stereo not drawn) [Example 124, 1-[4-(4-{6-Amino-5-[1-(2,6-dichloro-3-fluoro-phenyl)-ethoxy]-pyridin-3-yl}-pyrazol-1-yl)-piperidin-1-yl]-2-methoxy-ethanone]

Same assay, conditions: Met-2 substrate peptide, 50 nM HGFR, 37° C.; read-out: c-Met Ki

Row | Structure (SMILES) | Ki [nM]
6 | CC(Oc1cc(-c2cnn(C3CN(C(C)C)C3)c2)cnc1N)c1c(Cl)ccc(F)c1Cl (stereo not drawn) [Example 97, 3-[1-(2,6-dichloro-3-fluorophenyl)ethoxy]-5-[1-(1-isopropylazetidin-3-yl)-1H-pyrazol-4-yl]pyridin-2-amine] | 30
7 | CC(Oc1cc(-c2cnn(C3CCN(CC(N)=O)CC3)c2)cnc1N)c1c(Cl)ccc(F)c1Cl (stereo not drawn) [Example 98, 2-[4-(4-{6-amino-5-[1-(2,6-dichloro-3-fluorophenyl)ethoxy]pyridin-3-yl}-1H-pyrazol-1-yl)piperidin-1-yl]acetamide] | 7
8 | CC(Oc1cc(-c2cnn(C3CC4CCC(C3)N4)c2)cnc1N)c1c(Cl)ccc(F)c1Cl (stereo not drawn) [Example 99, 5-[1-(8-azabicyclo[3.2.1]oct-3-yl)-1H-pyrazol-4-yl]-3-[1-(2,6-dichloro-3-fluorophenyl)ethoxy]pyridin-2-amine] | 5
9 | CC(Oc1cc(-c2cnn(Cc3nn[nH]n3)c2)cnc1N)c1c(Cl)ccc(F)c1Cl (stereo not drawn) [Example 100, 3-[1-(2,6-dichloro-3-fluorophenyl)ethoxy]-5-[1-(2H-tetrazol-5-ylmethyl)-1H-pyrazol-4-yl]pyridin-2-amine] | 40
10 | CC(Oc1cc(-c2cnn(C3CN(CCO)C3)c2)cnc1N)c1c(Cl)ccc(F)c1Cl (stereo not drawn) [Example 102, 2-[3-(4-{6-amino-5-[1-(2,6-dichloro-3-fluorophenyl)ethoxy]pyridin-3-yl}11H-pyrazol-1-yl)azetidin-1-yl]ethanol] | 50
11 | COCCN1CC(n2cc(-c3cnc(N)c(OC(C)c4c(Cl)ccc(F)c4Cl)c3)cn2)C1 (stereo not drawn) [Example 103, 3-[1-(2,6-dichloro-3-fluorophenyl)ethoxy]-5-{1-[1-(2-methoxyethyl)azetidin-3-yl]-1H-pyrazol-4-yl}-pyridin-2-amine] | 70
12 | CC(Oc1cc(-c2cnn(C3CN(S(C)(=O)=O)C3)c2)cnc1N)c1c(Cl)ccc(F)c1Cl (stereo not drawn) [Example 104, 3-[1-(2,6-dichloro-3-fluorophenyl)ethoxy]-5-{1-[1-(methylsulfonyl)azetidin-3-yl]-1H-pyrazol-4-yl}pyridin-2-amine] | 36
13 | CC(Oc1cc(-c2cnn(C3CN(C(=O)CO)C3)c2)cnc1N)c1c(Cl)ccc(F)c1Cl (stereo not drawn) [Example 105, 2-[3-(4-{6-amino-5-[1-(2,6-dichloro-3-fluorophenyl)ethoxy]pyridin-3-yl}1H-pyrazol-1-yl)azetidin-1-yl]-2-oxoethanol] | 22
14 | CC(Oc1cc(-c2cnn(CC3CN(S(C)(=O)=O)C3)c2)cnc1N)c1c(Cl)ccc(F)c1Cl (stereo not drawn) [Example 107, 3-[1-(2,6-dichloro-3-fluorophenyl)ethoxy]-5-(1-{[1-(methylsulfonyl)azetidin-3-yl]methyl}-1H-pyrazol-4-yl)pyridin-2-amine] | 44
15 | CC(Oc1cc(-c2cnn(CC3CN(CC4CC4)C3)c2)cnc1N)c1c(Cl)ccc(F)c1Cl (stereo not drawn) [Example 112, 5-(1-{[1-(cyclopropylmethyl)azetidin-3-yl]methyl}1H-pyrazol-4-yl)-3-[1-(2,6-dichloro-3-fluorophenyl)ethoxy]pyridin-2-amine] | 47
16 | CC(Oc1cc(-c2cnn(C3CC4CCC(C3)N4C)c2)cnc1N)c1c(Cl)ccc(F)c1Cl (stereo not drawn) [Example 115, 3-[1-(2,6-dichloro-3-fluorophenyl)ethoxy]-5-[1-(8-methyl-8-azabicyclo[3.2.1]oct-3-yl)-1H-pyrazol-4-yl]pyridin-2-amine] | 9
17 | CC(Oc1cc(-c2cnn(C3CCS(=O)(=O)CC3)c2)cnc1N)c1c(Cl)ccc(F)c1Cl (stereo not drawn) [Example 116, 3-[1-(2,6-dichloro-3-fluorophenyl)ethoxy]-5-[1-(1,1-dioxidotetrahydro-2H-thiopyran-4-yl)-1H-pyrazol-4-yl]pyridin-2-amine] | 17

The remaining lines, values ahead:

Row | Ki [nM] | Structure (SMILES)
18 | 19 | CCOC(=O)N1CCC(n2cc(-c3cnc(N)c(OC(C)c4c(Cl)ccc(F)c4Cl)c3)cn2)CC1 (stereo not drawn) [Example 101, ethyl 4-(4-{6-amino-5-[1-(2,6-dichloro-3-fluorophenyl)ethoxy]pyridin-3-yl}-1H-pyrazol-1-yl)piperidine-1-carboxylate]
19 | 29 | CC(=O)N1CC(Cn2cc(-c3cnc(N)c(OC(C)c4c(Cl)ccc(F)c4Cl)c3)cn2)C1 (stereo not drawn) [Example 106, 5-{1-[(1-acetylazetidin-3-yl)methyl]-1H-pyrazol-4-yl}-3-[1-(2,6-dichloro-3-fluorophenyl)ethoxy]pyridin-2-amine]
20 | 57 | CC(Oc1cc(-c2cnn(CC3CN(C(C)C)C3)c2)cnc1N)c1c(Cl)ccc(F)c1Cl (stereo not drawn) [Example 108, 3-[1-(2,6-dichloro-3-fluorophenyl)ethoxy]-5-{1-[(1-isopropylazetidin-3-yl)methyl]-1H-pyrazol-4-yl}pyridin-2-amine]
21 | 21 | CC(Oc1cc(-c2cnn(C3CN(CC(N)=O)C3)c2)cnc1N)c1c(Cl)ccc(F)c1Cl (stereo not drawn) [Example 109, 2-[3-(4-{6-amino-5-[1-(2,6-dichloro-3-fluorophenyl)ethoxy]pyridin-3-yl}1H-pyrazol-1-yl)azetidin-1-yl]acetamide]
22 | 32 | CC(=O)N1CC(n2cc(-c3cnc(N)c(OC(C)c4c(Cl)ccc(F)c4Cl)c3)cn2)C1 (stereo not drawn) [Example 110, 5-[1-(1-acetylazetidin-3-yl)-1H-pyrazol-4-yl]-3-[1-(2,6-dichloro-3-fluorophenyl)ethoxy]pyridin-2-amine]
23 | 37 | CC(Oc1cc(-c2cnn(CC3CN(CC#N)C3)c2)cnc1N)c1c(Cl)ccc(F)c1Cl (stereo not drawn) [Example 111, {3-[(4-{6-amino-5-[1-(2,6-dichloro-3-fluorophenyl)ethoxy]pyridin-3-yl}-1H-pyrazol-1-yl)methyl]azetidin-1-yl}acetonitrile]
24 | 14 | CC(Oc1cc(-c2cnn(C3CCCS(=O)(=O)C3)c2)cnc1N)c1c(Cl)ccc(F)c1Cl (stereo not drawn) [Example 117, 3-[1-(2,6-dichloro-3-fluorophenyl)ethoxy]-5-[1-(1,1-dioxidotetrahydro-2H-thiopyran-3-yl)-1H-pyrazol-4-yl]pyridin-2-amine]
